Assays:
[1] = system: rats with PDD; assay: Object recognition test in MPTP-HCl-induced PDD rats; type: in vivo, male Wistar rats
Protocol: 1-methyl-4-phenyl-1,2,3,6-tetrahydropyridine hydrochloride (MPTP-HCl) was used to induce PDD in the rats, and the therapeutic effect of ceftriaxone on PDD was evaluated via behavioral tests and histopathological assessment of the brain for the rats. The experiments of this example were conducted substantially according to the method as described in Ho Y. J. et al. (2011), Behav. Brain Res., 219:280-290.
The rats in the pathological control group, the preventive groups, and the treatment groups were anesthetized using Zoletil (Virbac, Carros, France; 20 mg/kg, intraperitoneal injection). Afterward, 0.5 M MPTP-HCl (in saline) was slowly infused bilaterally into the substantia nigra pars compacta (SNc) of the mesencephalon of each rat in the pathological control group, the preventive groups, and the treatment groups (0.21 mg/side) so as to induce the same to develop PDD.
5 days before the MPTP-HCl injection, ceftriaxone (Sigma) was administered to the rats in the preventive groups 1,2 via intraperitoneal injection respectively at a daily dose of 100 mg/kg and at a daily dose of 200 mg/kg until the end of the 14th day after the MPTP-HCl injection. After the MPTP-HCl injection, ceftriaxone was administered to the rats in the treatment group 1 and the sham-operated groups 2,3 via intraperitoneal injection respectively at a daily dose of 200 mg/kg, at a daily dose of 100 mg/kg, and at a daily dose of 200 mg/kg, and saline was administered to the rats in the pathological control group and the sham-operated group 1 via intraperitoneal injection at a daily dose of 1 mL/kg. In addition, starting on the 3rd day after the MPTP-HCl injection, ceftriaxone was administered to the rats in the treatment groups 2,3 via intraperitoneal injection respectively at a daily dose of 100 mg/kg and at a daily dose of 200 mg/kg. The rats in the pathological control group, the treatment groups 1,2,3, and the sham-operated groups 1,2,3 were subjected to the once-a-day administration until the end of the 14th day after the MPTP-HCl injection.
Starting on the 8th day after the MPTP-HCl injection, the rats in each group were subjected to the T-maze test as described in section C of this example. Starting on the 12th day after the MPTP-HCl injection, the rats in each group were subjected to the object recognition test as described in section D of this example. On the 15th day after the MPTP-HCl injection, the rats in the treatment group 1, the sham-operated group 1, and the pathological control group were subjected to the histopathological analysis as described in section E of this example.
In order to examine the effect of ceftriaxone on the recognition and/or memory ability of the rats with PDD, starting on the 12th day after the MPTP-HCl injection, all of the rats in each group were subjected to an object recognition test lasting a total of three days.
The object recognition test is described as follows. The object recognition test included four trials. The first and second trilas were conducted respectively on the 12th and 13th after the MPTP-HCl injection, and the third and fourth trials were conducted on the 14th day after the MPTP-HCl injection. Each of the four trials lasted 5 minutes. The time interval between the first and second trials, and that between the second and third trials were 1 day. The time interval between the third and fourth trials was 5 minutes. At the beginning of each of the four trials, the respective rat was placed in the open box and adjacent to the corner C4 thereof. During the first, second, and third trials, the objects A1, A2, A3 were disposed in the open box for being able to be explored by the respective rat (see FIG. 2(A)). During the fourth trial, the object A3 was replaced with the object B (see FIG. 2(B)). During the object recognition test, a video camera installed above the open box was used to monitor and record the behavior of the respective rat.

[2] = system: rats with PDD; assay: Immunohistochemical staining (OX-6) of activated microglia in the SNc of PDD rats; type: in vivo, male Wistar rats; details: Example 1 treatment group 1: 200 mg/kg daily i.p. for 14 days after MPTP-HCl; determined 15th day (FIG. 5)
Excerpt: In order to investigate whether ceftriaxone is effective in ameliorating neuroinflammation and neurodegeneration of the rats with PDD, on the 15th day after the MPTP-HCl injection, four rats were randomly selected from each of the treatment group 1, the sham-operated group 1, and the pathological control group for histopathological analysis.
The randomly selected rats were sacrificed using CO2, followed by perfusion with 4% paraformaldehyde (in phosphate buffered saline). The brains were rapidly removed and were post-fixed in a 30% sucrose solution containing 4% paraformaldehyde at 4° C. for at least three days. The brains were cut into coronal sections (a thickness of about 30 μm) using a cryostat (Leica CM3050 S, Leica).
The sections containing SNc were selected. […]
The experimental data are expressed as mean±SEM. The experimental data were subjected to one-way ANOVA and were subsequently subjected to LSD test such that the difference between the pathological control group and the sham-operated group 1, and the difference between the treatment group 1 and the pathological control group could be evaluated. […]

[3] = system: 6-hydroxydopamine (6-OHDA)-lesioned rats; details: 6-OHDA-lesioned rats (animal model of PD); cited from earlier work
[4] = system: aged-impaired (AI) rats; details: daily dose of 200 mg/kg for 7 days; cited from earlier work
[5] = system: rats chronically exposed to hypobaric hypoxia; details: cited from earlier work

## CO/N=C(\C(=O)N[C@@H]1C(=O)N2C(C(=O)O)=C(CSc3nc(=O)c(=O)[nH]n3C)CS[C@H]12)c1csc(N)n1 [ceftriaxone, Ceftriaxone]
[1]; Example 1 preventive group 1: 100 mg/kg daily i.p. from 5 days before MPTP-HCl, determined 14th day (FIG. 4)
  percentage of exploration time spent on object B in the fourth trial versus object A3 in the third trial: there is statistical significance
[1]; Example 1 preventive group 2: 200 mg/kg daily i.p. from 5 days before MPTP-HCl, determined 14th day (FIG. 4)
  percentage of exploration time spent on object B in the fourth trial versus object A3 in the third trial: there is statistical significance
[1]; Example 1 treatment group 1: 200 mg/kg daily i.p. after MPTP-HCl injection to 14th day, determined 14th day (FIG. 4)
  percentage of exploration time spent on object B in the fourth trial versus object A3 in the third trial: there is statistical significance
[1]; Example 1 treatment group 2: 100 mg/kg daily i.p. starting 3rd day after MPTP-HCl, determined 14th day (FIG. 4)
  percentage of exploration time spent on object B in the fourth trial versus object A3 in the third trial: there is statistical significance
[1]; Example 1 treatment group 3: 200 mg/kg daily i.p. starting 3rd day after MPTP-HCl, determined 14th day (FIG. 4)
  percentage of exploration time spent on object B in the fourth trial versus object A3 in the third trial: there is statistical significance
[1]; Example 2 treatment group 1: 10 mg/kg daily i.p. after MPTP-HCl injection, determined 14th day (FIG. 8)
  percentage of exploration time spent on object B in the fourth trial versus object A3 in the third trial: there is statistical significance
[1]; Example 2 treatment group 2: 50 mg/kg daily i.p. after MPTP-HCl injection, determined 14th day (FIG. 8)
  percentage of exploration time spent on object B in the fourth trial versus object A3 in the third trial: there is statistical significance
[2]
  density of activated microglia in the SNc compared to the pathological control group: significantly lower
[3]
  motor symptoms: useful in amelioration of motor symptoms
  neuroprotection of dopaminergic neurons: neuroprotection of dopaminergic neurons
[4]
  cognitive impairment: able to ameliorate cognitive impairment of the AI rats
[5]
  cognitive impairment resulting from hypobaric hypoxia: capable of ameliorating the cognitive impairment resulting from hypobaric hypoxia
  neuronal degeneration and chromatin condensation: decreasing neuronal degeneration and chromatin condensation
  oxidative stress in the hippocampus: reducing oxidative stress in the hippocampus
